Reference: patent publication US4902690A, “Pest controlling compositions” (The General Hospital Corporation, priority 1988, dated 1990)
Several values for one entry are separate records, joined by “and”; a condition that tells them apart may be missing. Equal values may be shown once.

Legend:
[1] = test system: tobacco hornworms (Manducca sexta); assay: In vivo leaf test (feeding on sprayed tomato leaves); conditions: for effect of adding IBMX on antifeeding / pesticidal activity of the compound: IBMX 0.1%, FIGS. 9, 10, 17, Tables 4, 7, 8, FIG. 9 at 72 hours; for relative antifeeding potency: dose sprayed on tomato leaves; for antifeeding activity of the compound by itself: FIGS. 10, 13, 17, Table 8; for activity as synergist of DDCDM: FIGS. 14, 15, 16, 8-phenyl-theophylline 0.1% with 0.1% DDCDM compared with 0.1% IBMX; for state of the leaf 72 hours after treatment: 0.1% of each compound, FIG. 11
[2] = test system: adenylate cyclase in nerve cord of tobacco hornworm; assay: Octopamine agonist activity, adenylate cyclase in broken cell preparations of insect nerve cord; type: biochemical, tobacco hornworm (Manducca sexta); conditions: FIG. 3
Protocol: In addition to the above method employing the firefly light organ, octopamine-sensitive adenylate cyclase can also be measured in tissue preparations from the nerve cord of any desired particular insect pest, using a modification of the method appearing in Nathanson et al. (Science 180:308-310 (1973)) herein incorporated by reference. […]. […] Otherwise, the procedure is identical to that described above.
[…]. The tissue is homogenized (usually 15 mg/ml) as above in 6 mM Tris maleate, pH 7.4. […]. This is done to cancel out the effects of dopamine and serotonin receptors which are usually present in nerve cord. It assures that the compound (B) tested is affecting only octopamine receptors (known to be present in all insect nerve cords).

[3] = test system: octopamine-sensitive adenylate cyclase (firefly lantern octopamine receptor); assay: Octopamine-sensitive adenylate cyclase activation, firefly light organ broken cell preparation; type: biochemical, firefly (Photinus pyralis)
[4] = test system: phosphodiesterase enzyme of hornworm nerve cord; assay: PDE inhibitory activity, hornworm nerve tissue; type: biochemical, tobacco hornworm (Manducca sexta); conditions: FIG. 8
Excerpt: (§1) The ability of any compound (A) to inhibit phosphodiesterase (PDE) activity in broken cell preparations of firefly lantern or in pest tissues can be determined either (1) by measuring the decrease in rate of hydrolysis of an added amount of cyclic AMP by PDE (see Methods Section of Nathanson et al., Mol. Pharmacol. 12:390-398 (1975)), or (2) by measuring the rate of accumulation of one of the breakdown products of cyclic AMP, such as 5'-AMP or adenosine (see method of Filburn et al., Anal. Biochem. 52:505-516 (1973)). Both of these are herein incorporated by reference.
(§2) In this assay (modified slightly from Filburn and Karn (Analyt. Biochem. 52: 505-516 (1973)), the rate of hydrolysis of labeled cyclic AMP to 5'-AMP by PDE is measured by converting the breakdown product (5'-AMP) to adenosine, which can be separated and measured by alumina chromatography. Specifically, tissue from either the firefly lantern or pest is homogenized (10-20 mg/ml) in 6 mM Tris-maleate buffer, pH 7.4. The hydrolysis reaction is run in test tubes containing (in 100 microliters): 80 mM Tris maleate, pH 7.4; 6 mM MgSO4; 10 pmoles tritiated cyclic AMP (2×10^4 to 2×10^5 cpm, depending upon the activity of the enzyme); 20 microliters of tissue homogenate; and various concentrations of the compound to be tested. In those cases in which the compound is insoluble in aqueous solution at pH 7.4, pH can be varied between pH 6.5 and 9.0 for optimization of solubility. In addition, the test compound can be initially solubilized in either 100% methanol or DMSO and diluted to a final concentration of 10% methanol or DMSO in the assay (in which case solvent controls are run in parallel).
The reaction is started by the addition of homogenate, run for 4 min at 37° C., and terminated by boiling for 90 sec. […] The void volume is discarded and the column is then eluted with 2 ml of 0.1N ammonium acetate, pH 4.0, the eluent collected and counted by liquid scintillation spectrometry. […]

Manducca eggs = assay: Ovacidal test (eggs dipped in drug solutions); type: in vivo, Manducca sexta; conditions: IBMX 0.1 g/100 ml alone (C* = no agonist); control without IBMX 80
Protocol: In some cases, test agents were tested for ovacidal activity by dipping groups of 10-50 Manducca eggs in drug solutions for 60 seconds and then determining the percentage of eggs which produced viable larvae. A compound or synergist with active ovacidal activity was one which decreased the percentage of eggs hatched, relative to control.

[5] = test system: Firefly phosphodiesterase enzyme; assay: PDE inhibitory activity, firefly lantern; type: biochemical, firefly (Photinus pyralis); conditions: for phosphodiesterase inhibition: FIG. 6
Excerpt: as §1
Generally, any compound capable of maximally inhibiting PDE activity by at least 50% (Vmax -inhibition) and preferably by at least 80% is preferred. Also, in terms of the concentration of the compound required for such inhibition, this can be quantitated by determining the IC 50-inhibition, i.e., the concentration of the compound required to cause 50% of the maximal inhibitioncaused by the compound at any concentration.
as §2
The reaction is started by the addition of homogenate, run for 4 min at 37° C., and terminated by boiling for 90 sec. The 5'AMP formed is then converted to adenosine by the addition of 20 microliters of an aqueous solution of 0.5 Units/ml of 5'-nucleotidase (Sigma, Grade IV), vortexed, and incubated for 30 minutes at 37° C. The second reaction is stopped by addition of 0.4 ml of 0.1N ammonium acetate, pH 4.0. The entire sample is then applied to a 0.5×8 cm column containing neutral alumina prewashed with 20 ml of 0.1N ammonium acetate, pH 4.0. The void volume is discarded and the column is then eluted with 2 ml of 0.1N ammonium acetate, pH 4.0, the eluent collected and counted by liquid scintillation spectrometry. Activity is cpms above that due to a blank which was initially incubated for 0 seconds in the first reaction.

[6] = test system: cyclic AMP content of intact nerve cords of tobacco hornworms; assay: Cyclic AMP content of intact nerve cords incubated in vitro; type: cell-based, tobacco hornworm (Manducca sexta); conditions: 100 micromoles/liter of IBMX, 5 minutes in vitro; without PDE inhibitor 8.9±1.6
[7] = test system: adenylate cyclase in firefly lantern; assay: Direct activation of adenylate cyclase in firefly lantern; type: biochemical, firefly (Photinus pyralis); conditions: FIG. 4
Protocol: The second type of pest controlling compounds (B2) useable in the present compositions are direct stimulators of the pest enzyme adenylate cyclase. These compounds bypass the receptor, and interact with one or another of the associated catalytic or regulatory subunits of adenylate cyclase, thereby stimulating the formation of cyclic AMP. Suitable compounds can be determined from assay of pest adenylate cyclase as described above.
Adenylate cyclase activation by test compounds was measured in test tubes containing (in 0.3 ml) 80 mM Tris-maleate, pH 7.4; 10 mM theophylline; 8 mM MgCl2; 0.1 mM GTP; 0.5 mM ethylene glycol bis (beta-aminoethyl ether)-N,N,N'N'-tetraacetic acid; 2 mM ATP; 0.06 ml of P2 fraction; and the various compounds to be tested. Prior experiments had determined that, under these conditions, octopamine-sensitive adenylate cyclase activity is optimized. Test compounds were initially solubilized (prior to aqueous dilution) in water or (if soluble) in 50% (v/v) methanol. If insoluble in 50% methanol, compounds may be dissolved initially in 100% methanol, or 100% dimethylsulfoxide, or 100% polyethylene glycol. […] Cyclic AMP in the supernatant was measured by protein-binding assay, according to the method of Brown et al., Adv. […] Protein concentration was determined by the method of Lowry et al., Journal of Biological Chemistry 193:265-275 (1951). […]

[8] = test system: adenylate cyclase, nerve cord of tobacco hornworm larvae; assay: Direct activation of adenylate cyclase, broken cell preparations of hornworm nerve cord; conditions: FIG. 5
[9] = agonist 10^-1 gm/100 ml + PDE Inhibitor IBMX 0.1 g/100 ml
[10] = agonist 10^-1 gm/100 ml, No PDE Inhibitor
[11] = agonist 10^-2 gm/100 ml + PDE Inhibitor IBMX 0.1 g/100 ml
[12] = agonist 10^-2 gm/100 ml, No PDE Inhibitor
[13] = agonist 10^-3 gm/100 ml + PDE Inhibitor IBMX 0.1 g/100 ml
[14] = agonist 10^-3 gm/100 ml, No PDE Inhibitor

SMILES: NCC(O)c1ccc(O)cc1 (racemic) [(±)-p-octopamine]
- effect of adding IBMX on antifeeding / pesticidal activity of the compound [1]: greatly increases the percent leaf remaining
- activation of adenylate cyclase in nerve cord [2]: potent activators of adenylate cyclase
- Vmax (% OCT) ([3]; Table 1, phenylethylamines, maximal activation as % of that by (±)-p-octopamine, N.A. = No Activity): 81 ± 1 % OCT and 100 ± 1 % OCT

SMILES: Cn1c(=O)c2[nH]c(-c3ccccc3)nc2n(C)c1=O [8-phenyl-theophylline]
- inhibition of feeding (maximal, even at a high dose) ([1]; FIG. 13): ≤ 35%
- relative antifeeding potency ([1]; FIG. 13): shows the least activity
- antifeeding activity of the compound by itself [1]: little antifeeding activity
- activity as synergist of DDCDM [1]: much less activity as a synergist
- inhibition of phosphodiesterase activity (maximal) [4]: ≤ 30%

SMILES: Cc1cc(Cl)ccc1N=CN [DDCDM, di-demethylchlordimeform]
- state of the leaf 72 hours after treatment [1]: eaten substantial amounts of the leaf
- % Leaf Remaining (increase over control) ([1]; DDCDM 0.1 g/100 ml alone): 0%
- % Leaf Remaining ([1]; agonist 1 gm/100 ml + PDE Inhibitor IBMX 0.1 g/100 ml): 100%
- % Leaf Remaining ([1]; agonist 1 gm/100 ml, No PDE Inhibitor): 100%
- % Leaf Remaining [1, 9]: 98%
- % Leaf Remaining [1, 10]: 30%
- % Leaf Remaining [1, 11]: 85%
- % Leaf Remaining [1, 12]: 7%
- % Leaf Remaining [1, 13]: 20%
- % Leaf Remaining [1, 14]: 5%
- activation of adenylate cyclase in nerve cord [2]: potent activators of adenylate cyclase
- Ka ratio ([3]; FIG. 1, formamidines): 4
- Vmax ([3]; FIG. 1, formamidines, % of octopamine): 68%

SMILES: CC(C)Cn1c(=O)n(C)c(=O)c2[nH]cnc21 [IBMX, isobutylmethylxanthine]
- % Living Larvae (Manducca eggs): 90%
- state of the leaf 72 hours after treatment [1]: almost entirely consumed
- IBMX concentrations at which IBMX itself acted to inhibit feeding ([1]; FIG. 12): 0.4-5 gm/b 100 ml
- IBMX concentrations with no effect by itself and no increase of DDCDM activity ([1]; FIG. 12, DDCDM 0.1%): less than 0.001 gm/100 ml
- relative antifeeding potency ([1]; FIG. 13): more potent than theophylline
- antifeeding activity of the compound by itself [1]: very small inhibitory effect by itself
- phosphodiesterase inhibition [5]: more potent inhibitor of the enzyme
- pattern of PDE inhibition [4]: quite similar to that in the firefly light organ
- cyclic AMP content of hornworm nerve cord [6]: 21.4 ± 0.8 pmol/mg

SMILES: Cc1cc(Cl)ccc1N=C1NCCN1 [NC 7]
- effect of adding IBMX on antifeeding / pesticidal activity of the compound [1]: substantial increases in the potency
- % Leaf Remaining ([1]; agonist 0.3 (3 × 10^-1) gm/100 ml + PDE Inhibitor IBMX 0.1 g/100 ml): 100%
- % Leaf Remaining ([1]; agonist 0.3 (3 × 10^-1) gm/100 ml, No PDE Inhibitor): 80%
- % Leaf Remaining [1, 9]: 95%
- % Leaf Remaining [1, 10]: 55%
- % Leaf Remaining [1, 11]: 85%
- % Leaf Remaining [1, 12]: 30%
- % Leaf Remaining [1, 13]: 48%
- % Leaf Remaining [1, 14]: 23%
- activation of adenylate cyclase in nerve cord [2]: potent activators of adenylate cyclase
- Ka^oct /Ka^B ratio ([3]; Table 2, clonidines, N.A. = no activity): 9.8

SMILES: Cn1c(=O)c2c(ncn2C)n(C)c1=O [caffeine]
- activity as synergist of DDCDM [1]: much more powerful in inhibiting leaf feeding than caffeine alone or DDCDM alone
- phosphodiesterase inhibition [5]: active as phosphodiesterase inhibitors

SMILES: C=C[C@@]1(C)CC(=O)[C@]2(O)[C@@]3(C)[C@@H](O)CCC(C)(C)[C@@H]3[C@H](O)[C@H](OC(C)=O)[C@@]2(C)O1 [forskolin]
- antifeeding activity of the compound by itself [1]: has antifeeding activity
- effect of adding IBMX on antifeeding / pesticidal activity of the compound [1]: enhanced
- Ka ratio [7]: 0.22
- Vmax [7]: 100%
- Ka ratio [8]: 0.20
- Vmax [8]: about 100%

SMILES: COc1ccc(C[C@H](N)C(=O)N[C@H]2[C@@H](O)[C@H](n3cnc4c(N(C)C)ncnc43)O[C@@H]2CO)cc1 [puromycin]
- activity as synergist of DDCDM [1]: able to synergize the pesticidal activity of DDCDM
- Vmax (maximal inhibition of PDE activity) ([5]; FIG. 7): greater than 70%
- IC50 ([5]; FIG. 7, read-out: IC50 -inhibition): < 2000 µM
